# *1 amine or outer side, *2 acyl side, *3 side chain or, on linkers, in order; H or OH if unused. Where no end group is shown, it is not given here. [ ]: non-standard residue; d: D form. γGlu = O=C(O)[C@H](CCC(=O)[*:2])N[*:1]; Met(O) = CS(=O)CC[C@H](N)C(=O)O
# Experiments:
# calcium receptor = settings: shown in WO 2007/055388, WO 2007/055393, WO 2008/139945-7; J. Biol. Chem. 2006; cited from earlier work
# [1] = system: GLP-1-producing cell strain GLUTag; test: Function to promote secretion of GLP-1 from GLUTag cells; assay type: cell-based, mouse; settings: incubation 37° C. for 60 minutes, GLP-1 in supernatant by Enzyme immuno assay, vs Hepes B buffer control, FIGS. 2 and 3
# Method: A GLP-1-producing cell strain GLUTag derived from the mouse large intestine was cultured in a Dulbecco's modified Eagle's medium supplemented with 10% FBS at 37° C. in the presence of 5% CO2. The GLUTag cells were cultured in a 48-well plate for 2 to 3 days until the cells reached a subconfluent state. Prior to the addition of each of samples, the wells were washed with a Hepes B buffer (140 mM NaCl, 4.5 mM KCl, 20 mM Hepes, 1.2 mM CaCl2, 1.2 mM MgCl2, 10 mM D-glucose, 0.1% BSA, pH 7.4), 80 μl of a sample solution obtained by dissolving each of the samples in the same buffer were added to the wells, and incubation was performed at 37° C. for 60 minutes. γ-Glu-Cys-Gly and cinacalcet were used as the samples. Further, the Hepes B buffer was used as a control. After supernatant collection, the cells were precipitated by centrifugation (800×g, 5 minutes, 4° C.), and 70 μl of the supernatant were collected and cryopreserved. The concentration of GLP-1 in the supernatant was measured with a commercially available Enzyme immuno assay kit (Yanaihara Institute Inc.).
# In the same manner as in Example 2, a function to promote the secretion of GLP-1 was examined using a GLP-1-producing cell strain GLUTag. γ-Glu-Cys and protamine were used as samples.
# [2] = system: CCK-producing cell strain STC-1; test: Function to promote secretion of CCK from STC-1 cells; assay type: cell-based, mouse; settings: incubation 37° C. for 60 minutes, CCK in supernatant by Enzyme immuno assay, vs Hepes B buffer control, FIG. 1
# Method: A CCK-producing cell strain STC-1 derived from the mouse small intestine was cultured in a Dulbecco's modified Eagle's medium supplemented with 10% FBS at 37° C. in the presence of 5% CO2. The STC-1 cells were cultured in a 48-well plate for 2 to 3 days until the cells reached a subconfluent state. Prior to the addition of each of the samples, the wells were washed with a Hepes B buffer (140 mM NaCl, 4.5 mM KCl, 20 mM Hepes, 1.2 mM CaCl2, 1.2 mM MgCl2, 10 mM D-glucose, 0.1% BSA, pH 7.4), […] of a sample solution obtained by dissolving each of the samples in the same buffer were added to the wells, and incubation was performed at 37° C. for 60 minutes. γ-Glu-Cys-Gly (Sigma-Aldrich Japan K.K.), γ-Glu-Val-Gly, and cinacalcet were used as the samples. Further, the Hepes B buffer was used as a control. After supernatant collection, the cells were precipitated by centrifugation (800×g, 5 minutes, 4° C.), and 80 μl of the supernatant were collected and cryopreserved.
# After the supernatant had been pretreated with an OASIS cartridge (C18), the concentration of CCK in the supernatant was measured with an Enzyme immuno assay kit (Phoenix Pharmaceuticals).
# male SD rats [3] = test: Oral glucose tolerance test in rats; assay type: in vivo; settings: rat, oral 160 mg/kg with glucose 2 g/kg, at 15 and 30 minutes after glucose administration, compared to glucose solution alone; FIG. 5
# Method: After male SD rats (7-week-old) had been preliminarily fed (for 3 to 4 days), and fasted overnight, they were subjected to an oral glucose tolerance test. Tail vein blood before specimen administration was collected, and a sample [glucose solution alone (2 g/kg weight)/glucose solution comprising γ-Glu-Cys (160 mg/kg weight)] was orally administered with a feeding tube. After sample administration, tail vein blood was collected at 15, 30, 60, 90, and 120 minutes, and the plasma glucose concentration was measured with a commercially available kit (manufactured by Wako Pure Chemical Industries, Ltd.).
# male SD rats [4] = test: GLP-1 secretion test in rats (ligated ileal loop); assay type: in vivo; settings: rat, 20 mg/2 mL deionized water into ligated ileum loop, ileal mesenteric vein blood 30-120 minutes, compared to water administration group; FIG. 4
# Method: After male SD rats (8-week-old) had been preliminarily fed, fasted overnight, and subjected to celiotomy under ketamine/xylazine anesthesia. GLP-1-producing cells are mainly distributed in an ileal site. Thus, after a ligated ileal loop (30 cm) had been prepared, a catheter was placed into the ileal mesenteric vein, and blood was collected from the catheter at the time of 0 minute (0 time). A sample (2 mL of deionized water, 20 mg of γ-Glu-Cys/2 mL of deionized water) was administered into the ligated ileum loop, blood was collected at 30, 60, 90, and 120 minutes after administration, respectively, and the plasma GLP-1 concentration was measured with an Enzyme immuno assay kit (manufactured by Yanaihara Institute Inc.).
Compound,calcium receptor activation (calcium receptor),other results
[γGlu]-Ser,activate a calcium receptor,–
γ-Glu-t-Leu,activate a calcium receptor,–
γ-Glu-Orn,activate a calcium receptor,–
γ-Glu-Tau,activate a calcium receptor,–
[γGlu]-[γGlu]-Val,activate a calcium receptor,–
[γGlu]-Val,activate a calcium receptor,–
Cys-Gly,activate a calcium receptor,–
[γGlu]-Thr,activate a calcium receptor,–
[γGlu]-Leu,activate a calcium receptor,–
Cys-Met,activate a calcium receptor,–
[γGlu]-[Met(O)],activate a calcium receptor,–
γ-Glu-Cys(S-Me),activate a calcium receptor,–
γ-Glu-Val-ol,activate a calcium receptor,–
Glu-Cys,activate a calcium receptor,–
[γGlu]-Ala,activate a calcium receptor,–
[γGlu]-Met,activate a calcium receptor,–
N[C@@H](CCC(=O)N[C@@H](CS)C(=O)NCC(=O)O)C(=O)O [γ-Glu-Cys-Gly],is a calcium receptor activator,promotion of secretion of GLP-1 [1]: functioned to promote the secretion of GLP-1; promotion of secretion of CCK [2]: functioned to promote the secretion of CCK
[γGlu]-Val-NH2,activate a calcium receptor,–
[γGlu]-Cys,activate a calcium receptor,promotion of secretion of GLP-1 [1]: functioned to promote the secretion of GLP-1; blood glucose concentration (male SD rats [3]): significantly lower blood glucose concentration value; plasma GLP-1 concentration (male SD rats [4]): significantly higher elevation of plasma GLP-1 concentration
[γGlu]-Ile,activate a calcium receptor,–
[γGlu]-Gly,activate a calcium receptor,–
protamine,–,promotion of secretion of GLP-1 [1]: functioned to promote the secretion of GLP-1
"C[C@@H](NCCCc1cccc(C(F)(F)F)c1)c1cccc2ccccc12 [cinacalcet, (R)-N-(3-(3-(trifluoromethyl)phenyl)propyl)-1-(1-naphthyl)ethylamine, reference compound]",–,promotion of secretion of GLP-1 [1]: functioned to promote the secretion of GLP-1; promotion of secretion of CCK [2]: functioned to promote the secretion of CCK
γ-Glu-Cys(S-Me)(O),activate a calcium receptor,–
Gly-Cys,activate a calcium receptor,–
[γGlu]-Val-Gly,–,promotion of secretion of CCK [2]: functioned to promote the secretion of CCK
Asp-Gly,activate a calcium receptor,–
Leu-Asp,activate a calcium receptor,–

# Reference: US20110046046A1, “PROPHYLACTIC OR THERAPEUTIC COMPOSITION FOR DIABETES OR OBESITY” (priority 2008, published 2011)
